For 29 compounds, IC50 results are on record in US8653100B2 (AbbVie Inc., priority 2008, dated 2014).

Counter-ions that a name gives are not always drawn.

human GlyT1c, sequence (P48067 whole entry): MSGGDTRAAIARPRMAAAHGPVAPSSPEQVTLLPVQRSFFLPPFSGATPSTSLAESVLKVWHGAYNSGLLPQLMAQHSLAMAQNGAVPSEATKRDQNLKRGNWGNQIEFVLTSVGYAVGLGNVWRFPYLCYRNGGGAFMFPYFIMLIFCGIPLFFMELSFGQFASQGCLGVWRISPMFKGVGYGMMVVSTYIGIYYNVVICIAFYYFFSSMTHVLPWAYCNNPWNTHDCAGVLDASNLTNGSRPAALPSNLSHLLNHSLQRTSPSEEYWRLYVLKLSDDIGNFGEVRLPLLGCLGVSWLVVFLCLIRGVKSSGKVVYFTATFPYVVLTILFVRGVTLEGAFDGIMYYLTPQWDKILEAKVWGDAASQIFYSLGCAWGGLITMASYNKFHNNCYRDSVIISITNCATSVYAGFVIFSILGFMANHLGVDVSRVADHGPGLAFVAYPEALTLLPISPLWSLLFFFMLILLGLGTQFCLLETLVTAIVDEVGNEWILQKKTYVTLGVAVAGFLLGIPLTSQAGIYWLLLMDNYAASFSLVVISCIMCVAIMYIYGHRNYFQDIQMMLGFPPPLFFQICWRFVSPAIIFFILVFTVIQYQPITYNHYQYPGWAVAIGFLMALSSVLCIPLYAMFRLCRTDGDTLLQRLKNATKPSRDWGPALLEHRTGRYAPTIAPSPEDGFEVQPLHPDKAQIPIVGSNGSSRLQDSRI

The assay addresses human GlyT1c (Homo sapiens (Human), UniProt P48067). Kind of assay: [3H]-Glycine uptake into recombinant CHO cells expressing human GlyT1. Format: cell-based. To be noted: hGlyT1c_5_CHO cells, 200 nM [3H]-glycine. On the procedure: [^3H]-Glycine uptake into recombinant CHO cells expressing human GlyT1: Human GlyT1c expressing recombinant hGlyT1c—5_CHO cells were plated at 20,000 cells per well in 96 well Cytostar-T scintillation microplates (Amersham Biosciences) and cultured to sub-confluency for 24 h. […] The plates were placed in a Wallac Microbeta (PerkinElmer) and continuously counted by solid phase scintillation spectrometry during up to 3 hours. […] IC50 calculations were made by four-parametric logistic nonlinear regression analysis (GraphPad Prism) using determinations within the range of linear increase of [^3H]-glycine incorporation between 60 and 120 min.
With `O=C(NCCOc1ccc2c(c1)C(C1(c3ccc(Cl)cc3)CCC1)NCC2)Nc1ccccc1` (centres unmarked) [Example 34, hydrochloride], the IC50 – broadly, the concentration at which inhibition is half-maximal – is not above 10000 nM. On to `Cc1nn(C)cc1S(=O)(=O)NCCOc1ccc2c(c1)C(C1(c3ccc(Cl)cc3)CCC1)NCC2` (centres unmarked) [Example 35, 1,3-Dimethyl-1H-pyrazole-4-sulfonic acid (2-{1-[1-(4-chloro-phenyl)-cyclobutyl]-1,2,3,4-tetrahydro-isoquinolin-7-yloxy}-ethyl)-amide hydrochloride], for which the IC50 was not above 1000 nM. In the case of `CC(C)NC(=O)NCCOc1ccc2c(c1)C(C1(c3ccc(Cl)cc3)CCC1)NCC2` (centres unmarked) [Example 36, 1-(2-{1-[1-(4-Chloro-phenyl)-cyclobutyl]-1,2,3,4-tetrahydro-isoquinolin-7-yloxy}-ethyl)-3-isopropyl-urea hydrochloride], the IC50 was not above 100000 nM. For `Cn1cc(S(=O)(=O)NCCOc2ccc3c(c2)C(C2(c4ccc(Cl)cc4)CCC2)NCC3)cn1` (centres unmarked) [Example 37, 1-Methyl-1H-pyrazole-4-sulfonic acid (2-{1-[1-(4-chloro-phenyl)-cyclobutyl]-1,2,3,4-tetrahydro-isoquinolin-7-yloxy}-ethyl)-amide hydrochloride], the IC50 was not above 100 nM. Take `CC(C)S(=O)(=O)NCCOc1ccc2c(c1)C(C1(c3ccc(Cl)cc3)CCC1)NCC2` (centres unmarked) [Example 38, Propane-2-sulfonic acid (2-{1-[1-(4-chloro-phenyl)-cyclobutyl]-1,2,3,4-tetrahydro-isoquinolin-7-yloxy}-ethyl)-amide hydrochloride]: the IC50 was not above 100 nM. Take `CCCCS(=O)(=O)NCCOc1ccc2c(c1)C(C1(c3ccc(Cl)cc3)CCC1)N(C(=O)NCC)CC2` (centres unmarked) [Example 39, 7-[2-(Butane-1-sulfonylamino)-ethoxy]-1-[1-(4-chloro-phenyl)-cyclobutyl]-3,4-dihydro-1H-isoquinoline-2-carboxylic acid ethylamide hydrochloride]: the IC50 is not above 100000 nM. As for `CCCCS(=O)(=O)NCCOc1ccc2c(c1)C(C1(c3ccc(Cl)cc3)CCC1)N(C)CC2` (centres unmarked) [Example 40, Butane-1-sulfonic acid (2-{1-[1-(4-chloro-phenyl)-cyclobutyl]-2-methyl-1,2,3,4-tetrahydro-isoquinolin-7-yloxy}-ethyl)-amide], the IC50 was not above 1000 nM.

On to `CCS(=O)(=O)N1CCN(c2ccc3c(c2)C(C2(c4ccc(Cl)cc4)CCC2)NCC3)CC1` (centres unmarked) [Example 41, 1-[1-(4-Chloro-phenyl)-cyclobutyl]-7-(4-ethanesulfonyl-piperazin-1-yl)-1,2,3,4-tetrahydro-isoquinoline], for which the IC50 is not above 100000 nM. As to `O=C(NCCOc1ccc2c(c1)C(C1(c3ccc(Cl)cc3)CCC1)NCC2)Nc1cccnc1` (centres unmarked) [Example 42, 1-(2-{1-[1-(4-Chloro-phenyl)-cyclobutyl]-1,2,3,4-tetrahydro-isoquinolin-7-yloxy}-ethyl)-3-pyridin-3-yl-urea hydrochloride], the IC50 is not above 100000 nM. Regarding `Cn1cc(S(=O)(=O)NCCOc2ccc3c(c2)C(C2(c4ccc(Cl)cc4)CC(F)(F)C2)NCC3)cn1` (centres unmarked) [Example 43, 1-Methyl-1H-pyrazole-4-sulfonic acid (2-{1-[1-(4-chloro-phenyl)-3,3-difluoro-cyclobutyl]-1,2,3,4-tetrahydro-isoquinolin-7-yloxy}-ethyl)-amidehydrochloride], the IC50 was not above 100 nM. On to `CCCS(=O)(=O)NCCOc1ccc2c(c1)C(C1(c3ccc(Cl)cc3)CC(F)(F)C1)NCC2` (centres unmarked) [Example 44, Propane-1-sulfonic acid (2-{1-[1-(4-chloro-phenyl)-3,3-difluoro-cyclobutyl]-1,2,3,4-tetrahydro-isoquinolin-7-yloxy}-ethyl)-amide hydrochloride], for which the IC50 was not above 100 nM. Take `CCCS(=O)(=O)NCCN(CCOc1ccc2c(c1)C(C1(c3ccc(Cl)cc3)CCC1)NCC2)S(=O)(=O)CCC` (centres unmarked) [Example 45, Propane-1-sulfonic acid (2-{1-[1-(4-chloro-phenyl)-cyclobutyl]-1,2,3,4-tetrahydro-isoquinolin-7-yloxy}-ethyl)-[2-(propane-1-sulfonylamino)-ethyl]amide]: the IC50 was not above 1000 nM. With `CCCS(=O)(=O)NCCOc1ccc2c(c1)C(C1(c3ccc(Cl)cc3)CCC1)N(C(=N)NC#N)CC2` (centres unmarked) [Example 46, 1-(1-(4-Chlorophenyl)cyclobutyl)-N-cyano-7-(2-(propylsulfonamido)ethoxy)-3,4-dihydroisoquinoline-2(1H)-carboximidamide], the IC50 was not above 1000 nM. `CCCS(=O)(=O)NCCOc1ccc2c(c1)C(C1(c3ccc(Cl)cc3)CCC1)N(C(=N)N)CC2` (centres unmarked) [Example 47, 1-[1-(4-Chloro-phenyl)-cyclobutyl]-7-[2-(propane-1-sulfonylamino)-ethoxy]-3,4-dihydro-1H-isoquinoline-2-carboxamidine]: the IC50 was not above 10000 nM. In the case of `O=C(COc1ccc2c(c1)C(C1(c3ccc(Cl)cc3)CCC1)NCC2)N1CCNCC1` (centres unmarked) [Example 48, 2-{1-[1-(4-Chloro-phenyl)-cyclobutyl]-1,2,3,4-tetrahydro-isoquinolin-7-yloxy}-1-piperazin-1-yl-ethanone], the IC50 was not above 10000 nM. In the case of `CCCS(=O)(=O)NCCOc1ccc2c(c1)C(C1(c3cccc(Cl)c3)CCC1)NCC2` (centres unmarked) [Example 49, Propane-1-sulfonic acid (2-{1-[1-(3-chloro-phenyl)-cyclobutyl]-1,2,3,4-tetrahydroisoquinolin-7-yloxy}-ethyl)-amide] it was not above 100 nM; in that of `CCCS(=O)(=O)NCCOc1ccc2c(c1)C(C1(c3ccccc3)CCC1)NCC2` (centres unmarked) [Example 50, 1-(1-Phenylcyclobutyl)-7-(2-(propylsulfonamido)ethoxy)-1,2,3,4-tetrahydroisoquinolinium chloride], not above 100 nM; in that of `Cn1cnc(S(=O)(=O)NCCOc2ccc3c(c2)C(C2(c4ccc(Cl)cc4)CCC2)NCC3)c1` (centres unmarked) [Example 51, 1-(1-(4-Chlorophenyl)cyclobutyl)-7-(2-(1-methyl-1H-imidazole-4-sulfonamido)ethoxy)-1,2,3,4-tetrahydroisoquinolinium chloride], not above 100 nM. Consider `Cc1nc(S(=O)(=O)NCCOc2ccc3c(c2)C(C2(c4ccc(Cl)cc4)CCC2)NCC3)cn1C` (centres unmarked) [Example 52, 1-(1-(4-Chlorophenyl)cyclobutyl)-7-(2-(1,2-dimethyl-1H-imidazole-4-sulfonamido)ethoxy)-1,2,3,4-tetrahydroisoquinolinium chloride], for which the IC50 was not above 10000 nM.

Take `CCOC(=O)N1CCN(S(=O)(=O)NCCOc2ccc3c(c2)C(C2(c4ccc(Cl)cc4)CCC2)NCC3)CC1` (centres unmarked) [Example 54, Ethyl 4-(N-(2-(1-(1-(4-chlorophenyl)cyclobutyl)-1,2,3,4-tetrahydroisoquinolin-7-yloxy)ethyl)sulfamoyl)piperazine-1-carboxylate hydrochloride]: the IC50 is not above 10000 nM. In the case of `O=S(=O)(NCCOc1ccc2c(c1)C(C1(c3ccc(Cl)cc3)CCC1)NCC2)N1CCNCC1` (centres unmarked) [Example 55, N-(2-(1-(1-(4-Chlorophenyl)cyclobutyl)-1,2,3,4-tetrahydroisoquinolin-7-yloxy)ethyl)piperazine-1-sulfonamide dihydrochloride] it was not above 10000 nM; in that of `CCCS(=O)(=O)N1CCN(S(=O)(=O)NCCOc2ccc3c(c2)C(C2(c4ccc(Cl)cc4)CCC2)NCC3)CC1` (centres unmarked) [Example 56, N-(2-(1-(1-(4-Chlorophenyl)cyclobutyl)-1,2,3,4-tetrahydroisoquinolin-7-yloxy)ethyl)-4-(propylsulfonyl)piperazine-1-sulfonamide hydrochloride], not above 10000 nM; in that of `O=S(=O)(NCCOc1ccc2c(c1)C(C1(c3ccc(Cl)cc3)CCC1)NCC2)c1c[nH]cn1` (centres unmarked) [Example 57, N-(2-(1-(1-(4-Chlorophenyl)cyclobutyl)-1,2,3,4-tetrahydroisoquinolin-7-yloxy)ethyl)-1H-imidazole-4-sulfonamide hydrochloride], not above 100 nM. For `O=S(=O)(NCCOc1ccc2c(c1)C(C1(c3ccc(Cl)cc3)CCC1)NCC2)c1ccc(NCc2ccccc2)nc1` (centres unmarked) [Example 58, 6-(Benzylamino)-N-(2-(1-(1-(4-chlorophenyl)cyclobutyl)-1,2,3,4-tetrahydroisoquinolin-7-yloxy)ethyl)pyridine-3-sulfonamide hydrochloride], the IC50 is not above 1000 nM. Consider `CCCNc1ccc(S(=O)(=O)NCCOc2ccc3c(c2)C(C2(c4ccc(Cl)cc4)CCC2)NCC3)cn1` (centres unmarked) [Example 59, N-(2-(1-(1-(4-Chlorophenyl)cyclobutyl)-1,2,3,4-tetrahydroisoquinolin-7-yloxy)ethyl)-6-(propylamino)pyridine-3-sulfonamide hydrochloride], for which the IC50 is not above 10000 nM.

For the compound `CCCS(=O)(=O)NCCOc1ccc2c(c1)C(C(c1ccc(Cl)cc1)C(C)C)NCC2` (centres unmarked) [Example 60, dihydrochloride], the IC50 was not above 10000 nM. With `O=S(=O)(NCCOc1ccc2c(c1)C(C1(c3ccc(Cl)cc3)CCC1)NCC2)C1CCCNC1` (centres unmarked) [Example 61, N-(2-(1-(1-(4-Chlorophenyl)cyclobutyl)-1,2,3,4-tetrahydroisoquinolin-7-yloxy)ethyl)piperidine-3-sulfonamide dihydrochloride], the IC50 was not above 100 nM. As to `O=S(=O)(NCCOc1ccc2c(c1)C(C1(c3ccc(F)cc3)CCC1)NCC2)c1cccnc1` (centres unmarked) [Example 66, N-[2-({1-[1-(4-Fluorophenyl)cyclobutyl]-1,2,3,4-tetrahydroisoquinolin-7-yl}oxy)ethyl]pyridine-3-sulfonamide hydrochloride], the IC50 was not above 100 nM.

For the compound `CCCS(=O)(=O)NCCOc1ccc2c(c1)C(C1(c3ccc(Cl)cc3)CCC1)NCC2(C)C` (centres unmarked) [Example 67, N-[2-({1-[1-(4-Chlorophenyl)cyclobutyl]-4,4-dimethyl-1,2,3,4-tetrahydroisoquinolin-7-yl}oxy)ethyl]propane-1-sulfonamide hydrochloride], the IC50 was not above 100 nM.
